Like-named read-outs stand apart in the source and are kept apart here.
Columns and labels:
[1] = tested on: gastrointestinal mucosa; conditions: male, Wistar, rat, in vivo, 6 h
Protocol: Gastric lesions induced by administration of the compounds of the invention in the confront of the corresponding drug precursor.
The animals have been sacrificed 6 hours after the administration. The gastrointestinal mucosa has been removed and inspected. The incidence of the gastrointestinal damage has been evaluated as described in experiment F1.

[2] = tested on: gastrointestinal mucosa; conditions: rat, in vivo, po
[3] = tested on: gastrointestinal mucosa; conditions: rat, in vivo
Protocol: The animals (rats) are distributed in the following groups (no. 10 animals for group):
• 1° group: treatment: only carrier (aqueous suspension 1% w/v of carboxymethylcellulose, dose: 5 ml/Kg when the drug is administered by os, or a physiologic solution when parenterally administered, i.e. by subcutaneous, intraperitoneal, intravenous or intermuscular route), • 2° group: treatment: carrier as above defined+NEM, B) Groups Treated with the Drug: • group I: treatment: carrier+drug, • group II: treatment: carrier+drug+NEM.
The administration routes are those known for the drug, and can be the oral or subcutaneous, intraperitoneal, intravenous or intramuscular route.
The animals are sacrificed after 24 hours and then one proceeds to the evaluation of the damage to the gastrointestinal mucosa.
Test 1—experimental model in vivo with N-ethylmaleimide (NEM): study of the gastric tolerability of some drugs screened as precursors of the compounds of the invention.
The animals (rats, weight about 200 g) are distributed in the following groups (No. 10 animals for group):
• 1° group: treatment: only carrier (aqueous suspension 1% w/v of carboxymethylcellulose, dose: 5 ml/Kg when the drug is administered by os, physiologic solution when by parenteral route), • 2° group: treatment: carrier+NEM, B) Groups Administered with Each Drug: • group I: treatment: carrier+drug, • group II: treatment: carrier+drug+NEM.
The drug is administered one hour later, in suspension in the carrier. Animals are sacrificed after 24 hours and evaluation of the damage to the gastrointestinal mucosa is made by counting the number of rats, inside each group, with lesions to the stomach at a visual inspection. The total number of said rats is then divided by the total number of rats of the group and multiplied by 100.

[4] = tested on: human endothelial cells of the umbilical vein; assay: Test 2 (CIP): apoptosis (DNA fragmentation) induced by cumene hydroperoxide in endothelial cells; format: cell-based; conditions: drug 10^-4 M; CIP 5 mM
Protocol: Test 2 (CIP): Protection parameter of endothelial cell against the oxidative stress induced by cumene hydroperoxide (CIP).
Human endothelial cells of the umbilical vein are prepared according to an usual standard procedure. Fresh umbilical veins are filled with a 0.1% by weight collagenase solution and incubated at 37° C. for 5 minutes.
The cells are collected from the perfusate by centrifugation and harvested in culture flasks T-75, pretreated with human fibronectin. The cells are then harvested in the same medium, further added with 10 ng/ml of bovine hypothalamic growth factor. When the cells of the primary cell culture (i.e. that directly obtained from ex-vivo) form a single layer of confluent cells (about 8,000,000 cells/flask), the culture is stopped and the layers washed and trypsinized. The cellular suspensions are transferred into the wells of a cell culture plate having 24 wells, half of which is then additioned with the same culture medium containing the drug at a 10^−4M concentration, and harvested in a thermostat at 37° C. at a constant moisture. Only the cells coming from said first sub-cultures are used for the experiments with cumene hydroperoxide (CIP).
Before starting the test, the cellular culture medium is removed and the cellular layers are carefully washed with a physiologic solution at a temperature of 37° C. The wells of the culture plate are then incubated for one hour with CIP at a 5 mM concentration in the culture medium. […] 5 replicates for each sample are carried out.
Human endothelial cells of the umbilical vein are prepared according to a standard method. Fresh umbilical veins are filled with a collagenase solution 0.1% by weight and incubated at 37° C. for 5 minutes.
The cells are collected from the perfusate by centrifugation at 800 rpm and harvested in culture flasks T-75, pretreated with human fibronectin. Cells are then harvested in the same medium, added with bovine hypothalamic growth factor (100 ng/ml). When the cells of the primary cell culture (the cells directly removed from ex-vivo umbilical vein) form a single layer of confluent cells (about 8,000,000 cells/flask), harvesting is stopped and the layers are washed and trypsinized. The cellular suspensions are transferred into wells of a culture plate having 24 wells, half of said wells being added with the same culture medium containing the drug at a 10^−4M concentration, and harvested in a thermostat at 37° C. at a constant moisture (90%), CO2=5%. When the drug is not soluble in the culture medium, it is formerly dissolved in a small amount of dimethylsulphoxide. The maximum amount of dimethylsulphoxide which can be added to the culture medium is 0.5%. Only the cells coming from these first subcultures are used for the tests with cumene hydroperoxide (CIP).
Before starting the test, the cellular culture medium is removed and the cellular layers are carefully washed with a standard physiologic solution buffered with phosphate 0.1 M pH 7.0, at the temperature of 37° C. The content of each well is then incubated for one hour with a CIP suspension in the culture medium at a 5 mM concentration. Evaluation of the cellular damage (apoptosis) is carried out by determining the percent variation of the DNA fragmentation in the cultures containing the drug+CIP with respect to the controls treated with CIP only. […] The fluorescence of each sample was determined on 5 replicates. Statistic evaluation has been made with t Student test (p<0.01).

[5] = tested on: human endothelial cells of the umbilical vein; assay: Experiment F6: apoptosis (DNA fragmentation) induced in endothelial cells by hydrogen peroxide; format: cell-based; conditions: Endothelial cell, products 100 mmoles/l, hydrogen peroxide 200 mmoles/l, 18 hours, read-out: Apoptosis % (respect to the controls treated only with CIP)
Text: It has been Evaluated the Activity of Some of the Compounds Object of the Present Invention and of the Corresponding Precursor Drugs in Inhibiting DNA Degradation (Apoptosis) in Endothelial Cells Exposed to the Action of Hydrogen Peroxide (HP)
Hydrogen peroxide is a mild oxidant and is considered as an essential mediating agent in pathologies associated with oxidative stress (B. Halliwell, J. Gutteridge “Free Radicals in Biology and Medicine”, page 416, 1993). Therefore the pharmacological activity of compounds to be used under oxidative stress conditions is evaluated through their capability of neutralizing the cytolesive effects of the hydrogen peroxide (B. Halliwell, J. Gutteridge “Free Radicals in Biology and Medicine”, page 416, 1993).
The method described by Herman et Al. (Herman C., Zeiner M. A., Dimmeler S., Arterioscler. Thromb. Vasc. Biol. 17 (12), 3588-82, 1997).
Human endothelial cells of the umbilical vein are prepared according to a standard method. Fresh umbilical veins, just removed, are filled with a solution of collagenase at 0.1% and incubated at 37° C. for 5 minutes.
Subsequently the veins are perfused with medium M 199 (GIBCO, Grand Island, N.Y.) pH 7.4 containing 20% of human serum. The cells are collected from the perfusate by centrifugation at 800 rpm and harvested in culture flasks T-75, pretreated with human fibronectin. […]

CN(CCOC(=O)Cc1ccccc1Nc1c(Cl)cccc1Cl)CCO[N+](=O)[O-] [Example 14]
Gastropathy % incidence [1]: 0% | Gastropathy % incidence [2]: 20%

Nc1c2c(nc3ccccc13)CCCC2 [Tacrine, tacrine]
Gastro-enteropathy (% incidence) without NEM [3]: 0% | gastrointestinal damages / gastric lesions in rats treated with NEM + drug (in words) [3]: showed gastric lesions | inhibition of apoptosis induced by CIP (in words, p<0.01) [4]: do not significantly inhibit apoptosis | activity at 100000 µM [5]: 8% | Gastropathy % incidence [1]: 60%

— US7759392B2, “Pharmaceutical compounds” (Nicox S.A., priority 1999, dated 2010)
